In series [1] the test system is hiPSC-derived cardiomyocytes. As to the kind of experiment: KIC spontaneous calcium transients in hiPSC-derived cardiomyocytes. The series is classed as cell-based, human. Particulars: for EC50 Decay (in words) / EC50 FWHM (in words) / EC50 Rise Time (in words) / EC50 T75-25 (in words): N.S., not significant vs vehicle by ANOVA/Dunnett; for Effect on spontaneous calcium transient (in words): dose-response.

Another series concerns L-type Ca^2+ channel. Particulars: CR-mc; ref Ogawa, et al., 1992; cited from earlier work.
The next series concerns hERG. Particulars: cited from earlier work; for Reported EC50/IC50: PC-cc, et al.
The test system of another series is hiPSC-CMs. The series is classed as cell-based, human. Particulars: for Effect on paced [Ca^2+]i transients at 1 µM / Effect on paced [Ca^2+]i transients at 10 µM: 1 Hz pacing; for Effect on paced [Ca^2+]i transients at 0.1 µM: 4 stimulations at 1 Hz.
The subject of the next series is Na^+ channel. Particulars: PC-Xl; ref Ramos & O'Leary, 2004; cited from earlier work.
A further series has as its system KATP channel. The note with it: TM-ec; ref Houjou, et al., 1996; cited from earlier work.
The subject of a further series is hERG K^+ channel. Particulars: PC-Xl; ref Hansen, et al., 2006; cited from earlier work.
Series [2] has as its system NRVMs. As to the kind of experiment: KIC Ca2+ transient analysis in neonatal rat ventricular myocytes. The series is classed as cell-based. The note with it: for FWHM / T75-25 / TDecay / TRise: NRVMs treated three days with 100 nM T3, Ca2+ transient.
Series [3] concerns NRVMs. The series is described as follows: KIC calcium transients in T3-treated NRVMs paced at 2 Hz. The series is classed as cell-based, rat. Particulars: NRVMs after T3 treatment, 100 µM, 12 seconds recording.
The mark [4] stands for this setting: read-out: EC50 Decay, spontaneous calcium transients, hiPSC-CMs.
Where [5] appears, read: read-out: EC50 FWHM, spontaneous calcium transients, hiPSC-CMs.
Where [6] appears, read: read-out: EC50 Rise Time, spontaneous calcium transients, hiPSC-CMs.
The mark [7] stands for this setting: read-out: EC50 T75-25, spontaneous calcium transients, hiPSC-CMs.
Where [8] appears, read: Homo sapiens, Cardiomyocyte, read-out: EC50 Decay.
[9] abbreviates: Homo sapiens, Cardiomyocyte, read-out: EC50 FWHM.
Where [10] appears, read: Homo sapiens, Cardiomyocyte, read-out: EC50 Rise Time.
Setting [11] is: Homo sapiens, Cardiomyocyte, read-out: EC50 T75-25.
[12] abbreviates: Average CTR minus average T3 (100 nM, three days).

The structures appear in SMILES notation. Several values for one entry are separate records, joined by “and”; a condition that tells them apart may be missing. Identical values can stand only once. Like-named read-outs stand apart in the source and are kept apart here.

For `CC(=O)Oc1ccccc1C(=O)O` [Aspirin], in [1], the “EC50 Decay (in words)” value is given as “N.S”, the “EC50 FWHM (in words)” value was “N.S”, the “EC50 Rise Time (in words)” value was “N.S” and the “EC50 T75-25 (in words)” value is on record as “N.S”. The “Effect on spontaneous calcium transient (in words)” value in series [1] (hiPSC-CMs) is “minimal effect only at the highest concentrations”.

For the molecule `COC(=O)C1=C(C)NC(C)=C([N+](=O)[O-])C1c1ccccc1C(F)(F)F` (stereo not drawn) [Bay K 8644], the “Effect on spontaneous calcium transient (in words)” value in [1] (hiPSC-CMs) was “increased the transient amplitude and prolonged its duration”. The EC50 in series [1] (setting [4]) was found to be 6.38 nM; in series [1] (setting [5]), 11 nM; in [1] (setting [6]) it was 1300 nM; in [1] (setting [7]) it was 5.48 nM. In the series on L-type Ca^2+ channel, the “Reported EC50/IC50” value is given as 10–100 nM CR-mc.

As to `COc1cc(N)c(Cl)cc1C(=O)NC1CCN(CCCOc2ccc(F)cc2)CC1OC` (stereo not drawn) [Cisapride], the “Reported EC50/IC50” value in the series on hERG (ref Mohammad, 1997, Potet, 2001, Toga, 2007) was 6.5–240 nM PC-cc. For the same molecule, the EC50 in series [1] (setting [8]) was 147 nM. Besides, in series [1] (setting [9]), the concentration for a half-maximal effect (EC50) is 149 nM. In series [1] (setting [10]), the EC50 worked out at 154 nM. Moreover, the “EC50 T75-25 (in words)” value in series [1] is given as “N.S”. For the same molecule, in series [1] (hiPSC-CMs, 10 nM), the “Effect on spontaneous calcium transient at 10 nM” value was “prolonged the calcium transient”. For the same molecule, the “Effect on spontaneous calcium transient at 100 nM” value in [1] (hiPSC-CMs, 100 nM) is “reduction in the intensity of the transient and prolongation of the late phase of the decay”. The “Effect on spontaneous calcium transient at higher concentrations” value in series [1] (hiPSC-CMs, concentrations above 100 nM) is reported as “completely inhibited the occurrence of spontaneous transients”. Also, in the series with hiPSC-CMs, the “Effect on paced [Ca^2+]i transients at 1 µM” value is “almost fused and the maxima were reduced to about half of the initial peak”; the “Effect on paced [Ca^2+]i transients at 10 µM” value is “narrowed and follow-on maxima were decreased”; the “Effect on paced [Ca^2+]i transients at 0.1 µM” value is “anomalous [Ca^2+]i kinetics”.

Consider `CN(CCOc1ccc(NS(C)(=O)=O)cc1)CCc1ccc(NS(C)(=O)=O)cc1` [Dofetilide], for which the EC50 in [1] (setting [8]) is 0.75 nM; in series [1] (setting [11]), 5.87 nM. Moreover, the “EC50 FWHM (in words)” value in [1] is given as “N.S”. Besides, in [1], the “EC50 Rise Time (in words)” value is listed as “N.S”.

On to `Cc1cccc(CCN2CCC(C(=O)c3ccc(NS(C)(=O)=O)cc3)CC2)n1` [E-4031], for which the EC50 in [1] (setting [4]) was found to be 45.7 nM; in series [1] (setting [5]), 44.1 nM; in series [1] (setting [6]) it was 38.6 nM; in [1] (setting [7]) it was 82.2 nM.

`O=C(NCC1CCCCN1)c1cc(OCC(F)(F)F)ccc1OCC(F)(F)F` (stereo not drawn) [Flecainide]: the EC50 in series [1] (setting [8]) is 1010 nM; in [1] (setting [10]), 9670 nM; in series [1] (setting [11]), 1130 nM. In addition, in [1], the “EC50 FWHM (in words)” value is “N.S”. For the same molecule, the “Reported EC50/IC50” value in the series on Na^+ channel is reported as 7.4 µM PC-Xl.

`CC1(C)Oc2ccc(C#N)cc2[C@@H](N2CCCC2=O)[C@@H]1O` [Levcromakalim]: the EC50 in [1] (setting [8]) came out at 5280 nM; in series [1] (setting [9]), 9160 nM; in [1] (setting [10]), 3720 nM; in [1] (setting [11]) it was 3070 nM. Moreover, in the series with KATP channel, the “Reported EC50/IC50” value is given as 1.73 µM TM-ec.

Turning to `CCOc1cc(N)c(Cl)cc1C(=O)NCC1CN(Cc2ccc(F)cc2)CCO1` (stereo not drawn) [Mosapride], in the series on hERG (ref Toga, Kohmura, & Kawatsu, 2007), the “Affinity for hERG relative to cisapride” value is “three orders of magnitude less affinity for hERG”. For the same molecule, in series [1], the “EC50 Decay (in words)” value is listed as “N.S”, the “EC50 FWHM (in words)” value is on record as “N.S”, the “EC50 Rise Time (in words)” value is listed as “N.S” and the “EC50 T75-25 (in words)” value is “N.S”. In addition, the “Effect on spontaneous calcium transient (in words)” value in [1] (hiPSC-CMs) is “did not induce statistically significant changes”. Further, the “Effect on spontaneous calcium transient (in words)” value in [1] (hiPSC-CMs, listed as mosapride) is “minimal effect only at the highest concentrations”. In the series with hiPSC-CMs, the “Effect on paced [Ca^2+]i transients at 1 µM” value is “no discernible differences”, the “Effect on paced [Ca^2+]i transients at 10 µM” value is recorded as “pattern similar to 0.1 µM cisapride” and the “Effect on paced [Ca^2+]i transients at 0.1 µM” value was “no discernible differences”.

For `O=C(Nc1cc(C(F)(F)F)ccc1O)Nc1cc(C(F)(F)F)ccc1O` [NS1463, 1,3-Bis-(2-hydroxy-5-trifluoromethyl-phenyl)-urea], the EC50 in series [1] (setting [8]) was determined as 2540 nM; in [1] (setting [9]) it was 7000 nM; in series [1] (setting [10]), 3890 nM; in [1] (setting [11]) it was 2330 nM. The “Reported EC50/IC50” value in the series with hERG K^+ channel was 10.5µM PC-Xl.

As for `CC(C)NCC(O)c1ccc(NS(C)(=O)=O)cc1` (stereo not drawn) [Sotalol], the “Reported EC50/IC50” value in the series on hERG (ref Peng, 2010) is on record as 268µM PC-cc. The values for the EC50 in series [1] (setting [8]), in series [1] (setting [9]) and in [1] (setting [10]) were 85700 nM, 86300 nM and 89100 nM, respectively. Moreover, the “EC50 T75-25 (in words)” value in series [1] is on record as “None”.

For the molecule `N[C@@H](Cc1cc(I)c(Oc2ccc(O)c(I)c2)c(I)c1)C(=O)O` [T3, Triiodothyronine], in the series on NRVMs [2] (setting [12]), the “Difference in ms, FWHM” value was found to be 311 ms; the “Difference in ms, T75-25” value came to 215 ms; the “Difference in ms, TDecay” value amounted to 190 ms; the “Difference in ms, TRise” value amounted to 119 ms. In the series on NRVMs [2], the FWHM was found to be 567 ± 9 ms; the T75-25 is 439 ± 44 ms; the TDecay was 462 ± 15 ms; the TRise is 104 ms and 104 ± 14 ms. Also, in the series with NRVMs [2] (listed as T3-1), the FWHM was determined as 567 ms, the T75-25 came to 390 ms, the TDecay is reported as 447 ms and the TRise is listed as 120 ms. Moreover, in the series with NRVMs [2] (listed as T3-2), the FWHM came out at 558 ms, the T75-25 came out at 450 ms, the TDecay turned out to be 462 ms and the TRise is 96 ms. In the series with NRVMs [2] (listed as T3-3), this molecule gave an FWHM of 576 ms, a T75-25 of 477 ms and a TDecay of 477 ms. In the series with NRVMs [2] (T3 vs control NRVMs), the “Reduction of FWHM” value came out at 35%, the “Reduction of T75-25” value is 33%, the “Reduction of TDecay” value came to 29% and the “Reduction of TRise” value was 53%.

With `COc1ccc(CCN(C)CCCC(C#N)(c2ccc(OC)c(OC)c2)C(C)C)cc1OC` (stereo not drawn) [Verapamil], the EC50 is 170 nM in [1] (setting [8]), 260 nM in series [1] (setting [9]), 460 nM in series [1] (setting [10]) and 390 nM in series [1] (setting [11]). The “Effect on spontaneous calcium transient (in words)” value in series [1] (hiPSC-CMs) is “dose-dependent reduction in the intensity and duration of the calcium transient”; in series [1] (hiPSC-CMs, listed as verapamil), “completely blocked the Ca^2+ transient”.

Take `C[C@@H]1CN(c2c(F)c(N)c3c(=O)c(C(=O)O)cn(C4CC4)c3c2F)C[C@H](C)N1` [sparfloxacin]: the “Effect on paced calcium transients” value with NRVMs [3] is reported as “highly asynchronous calcium transients”.

For orientation: EC50 means the concentration at which the effect is half-maximal.

These data come from article PMC3667588 (Journal of pharmacological and toxicological methods, 2012).
